{"source": "patent US20160158381A1", "about": "“NOVEL NANOLIPOSOMES AND THEIR USE FOR THE TREATMENT OF AMYLOID PROTEIN DISEASES” (DEPARTMENT OF VETERANS AFFAIRS, TECHNOLOGY TRANSFER PROGRAM, priority 2013, published 2016)", "format_in_all_cases": "cell-based", "key": {"[1]": {"system": "human ex-vivo adipose arterioles exposed to LC", "test": "Arteriole vasoreactivity after LC exposure with or without NL", "settings": "LC+NL co-treated with L-NAME 5 mmol", "protocol": "9 male subjects (64±3 years old) without AL/diabetes/vascular disease undergoing routine abdominal surgery donated subcutaneous adipose tissue obtained by surgeons. Arterioles (˜[…]) were isolated, cannulated and pressurized (60 mmHg). Baseline/control vasoreactivity was performed following preconstriction with endothelin-1 (60% baseline diameter) and successive administration of acetylcholine (10-9-10-4M) to measure endothelium-dependent dilation and papaverine (10^-4M) to measure smooth-muscle dependent dilation (videomicrometer). After washing, vessels were exposed to LC (20 μg/mL, physiologic concentration of circulating LC in patients) with or without NL (1:10 LC:NL mass ratio) for 1 hour and a second vasoreactivity response performed. In additional arterioles, LC+NL were co-treated with L-NG-nitroarginine methyl ester (L-NAME, 5 mmol, Sigma-Aldrich).\nData is expressed as means±standard error of means. Baseline control and post-treatment dilator response were compared using paired Student's t-test. Overall acetylcholine dilator response was analyzed by deriving the log effective concentration 50% (log EC50) using nonlinear regression and variable slope and least squares fit. For group analyses, one-way or two way analysis of variance with Bonferroni post-test were utilized (GraphPad Prism 5.0, San Diego Calif.)."}, "[2]": {"system": "human abdominal subcutaneous adipose arterioles exposed to Aβ42", "test": "Arteriole vasoreactivity after Aβ42 exposure with or without nanoliposomes", "settings": "for dilator responses to acetylcholine and papaverine (endothelial function): Aβ42 2 μM with or without nanoliposomes (1:10 Aβ:NLPA mass ratio), one hour", "protocol": "Human abdominal subcutaneous arterioles were isolated from subjects without vascular disease, pressurized and constricted with endothelin-1. Baseline (control) dilation response was measured following acetylcholine (10_9-10-4M) and papaverine (10^-4M) exposure; after washing, arterioles were exposed to Aβ42 (2 μM)±nanoliposomes (NLPA, 70% cholesterol, 25% phosphatidylcholine, 5% phosphatidic acid, 1:10 Aβ:NLPA mass ratio) and dilator response was measured."}, "[3]": {"system": "Human umbilical vein endothelial cells (HUVECs)", "test": "Endothelial cell nitric oxide production (DAF-2 diacetate fluorescence)", "settings": "1 hour exposure, acetylcholine 10^-4M at 45 minutes", "protocol": "Human umbilical vein endothelial cells (HUVECs) were exposed to Aβ42±NLPA or control for 1-hour, acetylcholine (10^-4M) was administered at 45 minutes and nitric oxide (NO production) was measured using DAF-2 diacetate fluorescence (1 hour compared to baseline fluorescence)."}, "[4]": {"system": "human ex-vivo adipose arterioles exposed to soluble amyloid proteins (light chain)", "test": "Arteriole endothelial function after LC exposure with clusterin-incorporated nanoliposomes", "settings": "separate experiments; nanoliposomes of cholesterol and phosphatidylcholine; co-treatment with light chain", "excerpt": "Nanoliposomes were composed of cholesterol, phosphatidylcholine and stearyl triphenylphosphonium (STTP) and clusterin was incorporated by noncovalent means."}}, "note": "Entries after “also recorded” stand apart in the source; their conditions may differ."}
{"molecule": "COC(=O)[C@@H](N)CCCNC(=N)N[N+](=O)[O-]", "note": "[L-NAME, L-NG-nitroarginine methyl ester]", "values": [{"measurement": "effect of L-NAME on NL protective effect (dilator response)", "setting": "[1]", "result": "abolished NL protective effect; also recorded: Nanoliposome protective effect was reversed"}]}
{"molecule": "Aβ42: Aβ42 peptide, one of the amyloid proteins involved in AD", "values": [{"measurement": "dilation to acetylcholine 10^−4M", "setting": "[2]; Aβ42 2 μM with or without NLPA, 1:10 Aβ:NLPA mass ratio", "result": "61.5±5.7", "unit": "%"}, {"measurement": "dilator responses to acetylcholine and papaverine (endothelial function)", "setting": "[2]", "result": "caused endothelial dysfunction"}, {"measurement": "dilator responses to acetylcholine and papaverine (endothelial function)", "setting": "[2]; listed as Aβ", "result": "reduced"}, {"measurement": "NO production", "setting": "[3]", "result": "reduced endothelial cell NO gas production"}, {"measurement": "NO production", "setting": "[3]; listed as Aβ", "result": "reduced"}]}
{"molecule": "free clusterin: free clusterin without nanoliposome; clusterin is apolipoprotein J, a chaperone protein", "values": [{"measurement": "dilator response to acetylcholine versus baseline", "setting": "[4]", "result": "+3.1%"}]}
